{
  "source": "patent US11161845B2",
  "about": "“Pyrrolopyridine-aniline compounds for treatment of dermal disorders” (Nflection Therapeutics, Inc., priority 2017, dated 2021)",
  "key": {"[1]": {"test_system": "HCT116 cells", "assay": "HCT116 (Kras) GI50 cell-based assay (Cell Titer-Glo)", "settings": "Homo sapiens, HCT-116; 72 hours; read-out: Assay 3: HCT116 (Kras) GI50", "protocol": "Alternatively, the following procedure can be used to measure cell-based activity. Test compounds were dissolved in DMSO in 10 mM stock. Cell Titer-Glo® 2.0 Luminescent cell viability assay reagent was purchased from Promega (Madison, Wis.). A375 and HCT116 cell lines were purchased from American Type Culture Collection (Manassas, Va.). For A375 cells, cell culture media was DMEM+10% FBS. For HCT116 cells, cell culture media was McCoy's 5A+10% FBS. All media were supplemented with 100 μg/mL of penicillin, and 100 μg/mL of streptomycin. Cultures were maintained at 37° C. in a humidified atmosphere of 5% CO2 and 95% air.\nTest compounds were diluted in DMSO solution with 10-dose and 3-fold dilutions in a source plate starting at 10 mM. 25 nL of each test compound was delivered from the source plate to each well of the 384-well cell culture plates (T=Final) by Echo 550. 25 μL of culture medium containing 2000 of A375 or HCT116 cells was added to each of the wells in duplicates of the cell culture plates (T=0 and T=Final). 25 μL of Cell Titer Glo 2.0 reagent was added to each well of cell culture plate (T=0). The contents were mixed on an orbital shaker for 2 min and incubated at room temperature for 15 min to stabilize luminescent signal. Luminescence was recorded by Envision 2104 Multilabel Reader (PerkinElmer, Santa Clara, Calif.). The number of viable cells in culture was determined based on quantitation of the ATP present in each culture well. The cells in cell culture plate (T=Final) were incubated with the compounds at 37° C., 5% CO2 for 72 hours. 25 μL of Cell Titer Glo 2.0 reagent was added to each well. The contents were mixed on an orbital shaker for 2 min and incubated at room temperature for 15 min to stabilize luminescent signal. Luminescence was recorded by Envision 2104 Multilabel Reader (PerkinElmer, Santa Clara, Calif.). The number of viable cells in culture was determined based on quantitation of the ATP present in each culture well. The G150 curves were plotted using the GraphPad Prism 4 program based on a sigmoidal dose-response equation Y=Bottom+(Top−Bottom)/(1+10^((Log EC50−X)*HillSlope)). All parameters in the equation were calculated by GraphPad Prism 4 program. […] Accordingly, GI50 is the value of 10^X, where X was calculated by the Curve Fitting Equation when Y=50 using Excel."}, "[2]": {"assay": "S9 stability assay, human liver S9 fraction", "format": "in vitro ADME", "summary_of_the_method": "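Incubation at 37 °C of 1 μM compound with 2 mg/mL human liver S9 protein and 1 mM NADPH in 100 mM potassium phosphate pH 7.4 (1 mM EDTA, 3 mM MgCl2), sampled at 0, 15, 30, 60 min. Parent loss by LC/MS/MS gave t1/2 and CLint = 0.693/t1/2 × mL incubation/mg S9 protein.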"}},
  "data": [
    {"smiles": "Cn1c(Nc2ccc(I)cc2F)c(C(=O)NOCCO)c2cccnc21", "note": "[Example 2, 2-((2-Fluoro-4-iodophenyl)amino)—N-(2-hydroxyethoxy)-1-methyl-1H-pyrrolo[2,3-b]pyridine-3-carboxamide]", "values": [
      {"measurement": "GI50", "setting": "[1]", "value": 196, "unit": "nM"},
      {"measurement": "Assay 5: human liver S9 instrinsic clearance value", "setting": "[2]; Table 2, 1 μM, 2 mg/mL S9 protein, NADPH", "value": 21.45, "unit": "μL/min/mg protein"},
      {"measurement": "microsomal CLint at 1 μM", "setting": "[2]; pH 7.4, Table 1, human liver S9 fraction, read-out: CLint", "value": 21.4, "unit": "µL/min/mg"},
      {"measurement": "half-life at 1 μM", "setting": "[2]; pH 7.4, Table 1, human liver S9 fraction, read-out: Liver S9 t1/2", "value": 16, "unit": "min"}
    ]}
  ]
}
